Test results published in US20100247517A1, “USE OF MNK INHIBITORS FOR THE TREATMENT OF ALZHEIMER'S DISEASE” (Boehringer Ingelheim Internationational GmbH, priority 2007, published 2010).

Experiments:
Human Mnk1-GST = molecular target: T1, Human Mnk1-GST (Homo sapiens, UniProt Q9BUB5); assay: In vitro phosphorylation of human Tau by Mnk1 (kinase reaction, immunoblotting); type: biochemical
T1 construct: GST; made in house; host or cells: E. coli
Description: (§1) Kinase reaction: The kinase reactions were carried out in a total volume of 30 μl in reaction buffer (20 mM HEPES/KOH pH 7.4, 10 mM MgCl2, 2 mM DTT, 0.1% Pluronic F127, 0.01% BSA) containing 500 μM ATP, 0.5 μM human recombinant Tau (USBiological, T1040-10), inhibitors and kinases as indicated in figures. Human Mnk1-GST and Mnk2-GST was expressed in E. coli and purifies by Äkta Explorer 100 (Amersham) and pre-activated by human recombinant Erk2 (DeveloGen). Aliquots were stored at −80° C. up to use. Recombinant human PKA (Calbiochem, 539482) was used as positive control. All components of reactions were pre-diluted in reaction buffer. […] Samples were analysed by Immunoblotting.
(§2) Immunoblotting: Laemmli sample buffer (Biorad) was added to the stopped kinase reactions, subjected to SDS-PAGE and electroblotted on a nitrocellulose membrane (Schleicher & Schüll). The transferred membrane was incubated with NET-G buffer (50 mM Tris/HCl pH 7.5, 5 mM EDTA, 150 mM NaCl, 0.05% Triton X-100, 0.25% (w/v) gelatine) containing 1/1000 (v/v) anti Tau (phospho S262) or anti Tau (phospho S356) antibodies (Abcam, ab4856 and ab4857) over night at 4° C. After washing with NET-G buffer the membrane was treated with NET-G buffer containing 1/5000 (v/v) HRP-conjugated anti rabbit IgG antibody (Pierce) for 2 hours at room temperature.
(§3) For loading control membrane was stripped with stripping buffer (200 mM glycine/HCl pH 2.2, 0.1% SDS, 0.1% Tween 20) for 3 hours at room temperature. The membrane was then treated with NET-G buffer containing 1/4000 (v/v) anti Tau antibody (Abcam, ab19326). After washing with NET-G buffer the membrane was incubated with NET-G buffer containing 1/5000 (v/v) HRP-conjugated anti goat IgG antibody (DakoCytomation). Signals were detected with chemiluminescence using ECL Super Signal West Dura kit (Pierce).

Human Mnk2-GST = molecular target: T2, Human Mnk2-GST (Homo sapiens, UniProt Q9HBH9); assay: In vitro phosphorylation of human Tau by Mnk2 (kinase reaction, immunoblotting); type: biochemical
T2 construct: GST; made in house; host or cells: E. coli
T2 sequence (Q9HBH9 whole entry): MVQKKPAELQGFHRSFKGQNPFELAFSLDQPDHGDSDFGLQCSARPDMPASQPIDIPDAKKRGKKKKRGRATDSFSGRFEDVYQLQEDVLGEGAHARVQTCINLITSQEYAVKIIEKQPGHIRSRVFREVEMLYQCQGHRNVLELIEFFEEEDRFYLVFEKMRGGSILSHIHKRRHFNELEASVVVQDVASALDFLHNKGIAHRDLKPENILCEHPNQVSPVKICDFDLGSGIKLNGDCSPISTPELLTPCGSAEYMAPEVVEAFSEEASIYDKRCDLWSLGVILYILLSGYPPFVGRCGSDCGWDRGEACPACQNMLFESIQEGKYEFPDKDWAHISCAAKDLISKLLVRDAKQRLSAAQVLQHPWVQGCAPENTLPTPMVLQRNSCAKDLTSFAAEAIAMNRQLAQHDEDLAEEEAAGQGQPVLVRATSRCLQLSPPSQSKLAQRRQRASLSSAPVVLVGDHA
Description: as §1, §2, §3

[1] = results summary of FIG. 2 / FIG. 3

T1 sequence (Q9BUB5 whole entry): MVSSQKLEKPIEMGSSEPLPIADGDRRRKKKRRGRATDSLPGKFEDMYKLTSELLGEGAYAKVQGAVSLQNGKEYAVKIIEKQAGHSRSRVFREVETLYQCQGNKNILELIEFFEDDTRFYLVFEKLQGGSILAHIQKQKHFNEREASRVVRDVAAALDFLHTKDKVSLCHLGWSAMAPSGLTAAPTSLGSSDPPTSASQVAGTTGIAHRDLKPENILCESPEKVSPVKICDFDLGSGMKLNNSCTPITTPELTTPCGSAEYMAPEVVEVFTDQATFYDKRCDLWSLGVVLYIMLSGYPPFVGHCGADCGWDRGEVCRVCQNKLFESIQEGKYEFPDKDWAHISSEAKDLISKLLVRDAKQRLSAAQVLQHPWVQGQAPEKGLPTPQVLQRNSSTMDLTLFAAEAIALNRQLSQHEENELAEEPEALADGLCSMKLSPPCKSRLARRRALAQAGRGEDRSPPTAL

Q: `CCOc1cc(C(N)=O)ccc1Nc1ncnc2scc(C)c12` [EDJ101401, 3-ethoxy-4-(5-methyl-thieno[2,3-D]pyrimidine-4-ylamino)-benzamide] was tested. Which “inhibition of in vitro phosphorylation of Ser262 in human Tau by Mnk1” value (Human Mnk1-GST; 0.5 μM human Tau, 500 μM ATP, 120 min at 37° C., Erk2 (5 nM) used to activate Mnk, Western blot, FIG. 2A) did it give?
A: The value was “in a dose dependent manner”.

Q: And the “inhibition of in vitro phosphorylation of Ser356 in human Tau by Mnk1” value (Human Mnk1-GST; 0.5 μM human Tau, 500 μM ATP, 120 min at 37° C., Erk2 (5 nM) used to activate Mnk, Western blot, FIG. 2B)?
A: Its value is “in a dose dependent manner”.

Q: And the “inhibition of Mnk1-dependent tau phosphorylation” value (Human Mnk1-GST; [1])?
A: The value was “dose-dependent inhibition”.

Q: And the “inhibition of in vitro phosphorylation of Ser262 in human Tau by Mnk2” value (Human Mnk2-GST; 0.5 μM human Tau, 500 μM ATP, 120 min at 37° C., Western blot, FIG. 2A / 3A)?
A: The value was “in a dose dependent manner”.

Q: What about the “inhibition of in vitro phosphorylation of Ser356 in human Tau by Mnk2” value (Human Mnk2-GST; 0.5 μM human Tau, 500 μM ATP, 120 min at 37° C., Western blot, FIG. 2B / 3B) of the same compound?
A: Its value is “in a dose dependent manner”.

Q: What about the “inhibition of Mnk2-dependent tau phosphorylation” value (Human Mnk2-GST; [1]) of the same compound?
A: Its value is “dose-dependent inhibition”.
